Experiments:
[1] = test system: IL4/IL13-polarized murine BMDMs; assay: M2-biased polarization phenotype of BMDMs, flow cytometry of surface markers; assay type: cell-based, BALB/c mice; settings: mouse-derived BMDM, 48 h
Procedure: BALB/c mice (female, 6 weeks old, healthy) were sacrificed. Bone marrow cells were taken from their femurs and tibia, and seeded into a 6-well culture plate at appropriate densities ([…], per well) after erythrobiasis treatment. 100 ng/mL of CSF-1 factor was added to each well to induce macrophages (Bone marrow-derived macrophages, BMDM). After 7 days of induction, the cell culture medium was changed. CSF-1 factor was added at the same concentration as above, and M2 polarization of macrophages was induced with 10 ng/mL of IL4 and 10 ng/mL of IL13. While inducing polarization, compounds at various concentrations were added into test wells and negative control wells. After 48 h, the cells were harvested for flow cytometric analysis.
Cells in good condition were collected, and first washed twice with PBS. After washing, each sample was re-suspended with 100 µL of PBS and 0.5 µL of the fluorescent antibody prepared according to the manufacturer’s instructions to distinguish dead and live cells was added. The samples were stained in the dark at 4° C. for 30 min. After 30 min, the samples were washed twice with 1mL of the running buffer and the tubes were centrifuged at 300 g for 5 min at 4° C. The blocking antibody diluent was prepared by adding 2 µL of blocking antibody TruStain fcX™ (anti-mouse CD16/32) per 100 µL running buffer and was added on the basis of the 100 µL system of each sample. After blocking for 10 min, according to the manufacturer’s instructions, the fluorescent antibody corresponding to the surface protein was added to the samples, and the reactant was allowed for incubation at 4° C. for 30 min. At this step, a single staining control and an FMO control were set. Then, the samples were washed twice with 1 mL of the running buffer, and centrifuged at 300 g for 5 min at 4° C. each time.
If only surface proteins were to be examined, after centrifugation, the samples were re-suspended with 300 µL of PBS and immediately input into machines, or the samples were fixed with 4% paraformaldehyde for 15 min, and centrifuged at 500 g for 7 min. […]

[2] = test system: mouse colon cancer MC38 xenografts; assay: Pharmacodynamic experiment, growth of subcutaneous MC38 xenografts; assay type: in vivo; settings: for TV (mean ±SEM) D0: day 0 (baseline); for TGI D7 / TV (mean ±SEM) D7: day 7; for TGI D14 / TV (mean ±SEM) D14: day 14; for TGI D20 / TV (mean ±SEM) D20: day 20; for TGI D24 / TV (mean ±SEM) D24: day 24
Procedure: MC38 cells in good condition were re-suspended to 25 million cells/mL. 200 µL of cell suspension was inoculated subcutaneously in the right armpit of each mouse. When the tumor cells formed subcutaneous xenograft in the mice and grew to an average volume of approximately 100 mm^3, the mice were randomly assigned to the dosing group and the control group. The test compounds were prepared at the desired concentrations and corresponding equal amount of solvent was used as a solvent control. The drugs were administrated orally, and administrated once per day for 24 consecutive days.
During the dosing period, the xenograft volumes of the mice and the weights of the mice were measured every 2-4 days. The experiment was terminated 24 days after dosing.
The tumor volume (TV) was calculated as TV = ½×a×b^2, where “a” and “b” are the length and width of an xenograft, respectively.
Statistical tests were performed using the t test, with p≤0.05 representing a significant difference.

[3] = test system: mouse colon cancer CT-26 xenograft; assay: Growth of subcutaneous CT-26 xenografts, combination with anti-PD-1 antibody; assay type: in vivo, BALB/c mice; settings: compound I alone (+ Rat IgG2a isotype), 5 mg/kg orally once a day, 12 days
Procedure: CT-26 cells were subcutaneously inoculated into the right axillary fossa of BALB/c mice at a cell number of 5 × 10^6 per mouse. When the tumor cells successfully formed subcutaneous xenografts in the mice which further grew to an average volume of approximately 100 mm^3, the mice were randomly assigned to the dosing group and the control group. For the anti-PD-1 antibody group, an anti-PD-1 antibody (Bio X Cell Company, InVivoMAb anti-mouse PD-1 (CD279) (catalog : BE0273)) was administered […] once every three days at 10 mg/kg for 12 days. The control group was administrated the same amount of Hamster Ig (Rat IgG2a), as the isotype control of the anti-PD-1 antibody, and the administration route, dosage and frequency were same as those for the anti-PD-1 antibody group. […] Throughout the experiment, the tumor volume and the mice’s body weights were measured twice a week.
The tumor volume (TV) was calculated as TV = ½×a×b^2, where “a” and “b” are the length and width of the xenograft, respectively.
The relative tumor volume (RTV) was calculated from the results of the measurement according to the following equation:
RTV = Vt/V0, where V0 was the tumor volume measured at the beginning of administration (i.e., d0) and Vt was the tumor volume measured at each point.
The evaluation index of the anti-tumor activity was tumor growth inhibition ratio TGI (%), which was calculated as: […]

CNC(=O)c1cccc2cc(Oc3ccnc(NC(=O)c4ccc(N5C[C@@H](C)N[C@@H](C)C5)cc4)c3)ccc12 [Compound I]
expression level of surface marker CD206 (M2-type marker) ([1]; 25, 50 and 100 nM): significantly inhibit | expression level of surface marker CD86 (M1-type marker) [1]: significantly enhance | expression level of surface marker MHC-II (M1-type marker) [1]: significantly enhance | TV (mean ±SEM) D0 ([2]; 2.5 mg/kg oral once per day): 79±13 mm3 | TGI D7 ([2]; 2.5 mg/kg oral once per day): 63.3% | TV (mean ±SEM) D7 ([2]; 2.5 mg/kg oral once per day): 119±17 mm3 | TGI D14 ([2]; 2.5 mg/kg oral once per day): 63.0% | TV (mean ±SEM) D14 ([2]; 2.5 mg/kg oral once per day): 232±39 mm3 | TGI D20 ([2]; 2.5 mg/kg oral once per day): 74.6% | TV (mean ±SEM) D20 ([2]; 2.5 mg/kg oral once per day): 281±59 mm3 | TGI D24 ([2]; 2.5 mg/kg oral once per day): 75.3% | TV (mean ±SEM) D24 ([2]; 2.5 mg/kg oral once per day): 348±80 mm3 | TV (mean ±SEM) D0 ([2]; 10 mg/kg oral once per day): 79±12 mm3 | TGI D7 ([2]; 10 mg/kg oral once per day): 100.9% | TV (mean ±SEM) D7 ([2]; 10 mg/kg oral once per day): 78±15 mm3 | TGI D14 ([2]; 10 mg/kg oral once per day): 90.1% | TV (mean ±SEM) D14 ([2]; 10 mg/kg oral once per day): 120±42 mm3 | TGI D20 ([2]; 10 mg/kg oral once per day): 95.2% | TV (mean ±SEM) D20 ([2]; 10 mg/kg oral once per day): 117±46 mm3 | TGI D24 ([2]; 10 mg/kg oral once per day): 93.4% | TV (mean ±SEM) D24 ([2]; 10 mg/kg oral once per day): 150±64 mm3 | growth of murine colon cancer MC38 cell xenografts ([2]; oral once per day for 24 days): significantly inhibited | TGI / tumor inhibition rate [3]: 45.8%
